Laboratory results taken from PubChem BioAssay (NCI).
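Five compound concentrations were applied to cells in 96-well plates for 48 hours; endpoints were derived by simple linear interpolation of the resulting dose-response curve. TGI: total growth inhibition.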

Assays:
Assay in all cases: NCI anticancer screen, dose series, 48 h
UO-31 renal = test system: UO-31 renal
NCI-H226 lung = test system: NCI-H226 lung
NCI-H522 lung = test system: NCI-H522 lung
RXF 393 renal = test system: RXF 393 renal
SF-268 CNS = test system: SF-268 CNS
OVCAR-3 ovarian = test system: OVCAR-3 ovarian
MDA-N = test system: MDA-N
UACC-257 melanoma = test system: UACC-257 melanoma
SN12C renal = test system: SN12C renal
EKVX NSCLC = test system: EKVX NSCLC
MCF7 breast = test system: MCF7 breast
T-47D breast = test system: T-47D breast
SK-MEL-5 melanoma = test system: SK-MEL-5 melanoma
K-562 leukemia = test system: K-562 leukemia
NCI/ADR-RES ovarian = test system: NCI/ADR-RES ovarian
HS 578T breast = test system: HS 578T breast
M14 melanoma = test system: M14 melanoma
BT-549 breast = test system: BT-549 breast
OVCAR-5 ovarian = test system: OVCAR-5 ovarian
MALME-3M melanoma = test system: MALME-3M melanoma
KM12 colon = test system: KM12 colon
PC-3 prostate = test system: PC-3 prostate
OVCAR-4 ovarian = test system: OVCAR-4 ovarian
SK-OV-3 ovarian = test system: SK-OV-3 ovarian
MDA-MB-231 breast = test system: MDA-MB-231 breast
HOP-92 NSCLC = test system: HOP-92 NSCLC
A498 renal = test system: A498 renal
A549 NSCLC = test system: A549 NSCLC
UACC-62 melanoma = test system: UACC-62 melanoma
DU-145 prostate = test system: DU-145 prostate
MOLT-4 leukemia = test system: MOLT-4 leukemia
LOX IMVI melanoma = test system: LOX IMVI melanoma
786-0 renal = test system: 786-0 renal
U251 CNS = test system: U251 CNS
HCT-116 colon = test system: HCT-116 colon
SNB-75 CNS = test system: SNB-75 CNS
NCI-H23 lung = test system: NCI-H23 lung
SNB-19 CNS = test system: SNB-19 CNS
ACHN renal = test system: ACHN renal
OVCAR-8 ovarian = test system: OVCAR-8 ovarian
SW-620 colon = test system: SW-620 colon
SF-295 CNS = test system: SF-295 CNS
CAKI-1 renal = test system: CAKI-1 renal
SK-MEL-28 melanoma = test system: SK-MEL-28 melanoma
MDA-MB-435 = test system: MDA-MB-435
HCT-15 colon = test system: HCT-15 colon
IGROV1 ovarian = test system: IGROV1 ovarian
COLO 205 colon = test system: COLO 205 colon
CCRF-CEM leukemia = test system: CCRF-CEM leukemia
SK-MEL-2 melanoma = test system: SK-MEL-2 melanoma
HT29 colon = test system: HT29 colon
HOP-62 NSCLC = test system: HOP-62 NSCLC
TK-10 renal = test system: TK-10 renal
SF-539 CNS = test system: SF-539 CNS
NCI-H460 lung = test system: NCI-H460 lung
HCC-2998 colon = test system: HCC-2998 colon
SR leukemia = test system: SR leukemia
RPMI-8226 leukemia = test system: RPMI-8226 leukemia
HL-60(TB) leukemia = test system: HL-60(TB) leukemia

Compound: COC(=O)[C@@H]1[C@@H](c2cccc(Cl)c2)[C@H](C(=O)OC)C2(C[C@@]1(C)O)NCCS2 (some centres not stated)
- TGI (UO-31 renal): > 100 µM
- TGI (NCI-H226 lung): > 100 µM
- TGI (NCI-H522 lung): > 100 µM
- TGI (RXF 393 renal): > 100 µM
- TGI (SF-268 CNS): > 100 µM
- TGI (OVCAR-3 ovarian): > 100 µM
- TGI (MDA-N): > 100 µM
- TGI (UACC-257 melanoma): > 100 µM
- TGI (SN12C renal): > 100 µM
- TGI (EKVX NSCLC): > 100 µM
- TGI (MCF7 breast): > 100 µM
- TGI (T-47D breast): > 100 µM
- TGI (SK-MEL-5 melanoma): > 100 µM
- TGI (K-562 leukemia): > 100 µM
- TGI (NCI/ADR-RES ovarian): > 100 µM
- TGI (HS 578T breast): > 100 µM
- TGI (M14 melanoma): > 100 µM
- TGI (BT-549 breast): > 100 µM
- TGI (OVCAR-5 ovarian): > 100 µM
- TGI (MALME-3M melanoma): > 100 µM
- TGI (KM12 colon): > 100 µM
- TGI (PC-3 prostate): > 100 µM
- TGI (OVCAR-4 ovarian): > 100 µM
- TGI (SK-OV-3 ovarian): > 100 µM
- TGI (MDA-MB-231 breast): > 100 µM
- TGI (HOP-92 NSCLC): > 100 µM
- TGI (A498 renal): > 100 µM
- TGI (A549 NSCLC): > 100 µM
- TGI (UACC-62 melanoma): > 100 µM
- TGI (DU-145 prostate): > 100 µM
- TGI (MOLT-4 leukemia): 42.1 µM
- TGI (LOX IMVI melanoma): > 100 µM
- TGI (786-0 renal): > 100 µM
- TGI (U251 CNS): > 100 µM
- TGI (HCT-116 colon): > 100 µM
- TGI (SNB-75 CNS): > 100 µM
- TGI (NCI-H23 lung): > 100 µM
- TGI (SNB-19 CNS): > 100 µM
- TGI (ACHN renal): > 100 µM
- TGI (OVCAR-8 ovarian): > 100 µM
- TGI (SW-620 colon): > 100 µM
- TGI (SF-295 CNS): > 100 µM
- TGI (CAKI-1 renal): > 100 µM
- TGI (SK-MEL-28 melanoma): > 100 µM
- TGI (MDA-MB-435): > 100 µM
- TGI (HCT-15 colon): > 100 µM
- TGI (IGROV1 ovarian): > 100 µM
- TGI (COLO 205 colon): > 100 µM
- TGI (CCRF-CEM leukemia): 14.6 µM
- TGI (SK-MEL-2 melanoma): 94 µM
- TGI (HT29 colon): > 100 µM
- TGI (HOP-62 NSCLC): > 100 µM
- TGI (TK-10 renal): > 100 µM
- TGI (SF-539 CNS): > 100 µM
- TGI (NCI-H460 lung): > 100 µM

Compound: Cn1c(=O)c(C(=O)Nc2nc(C34CC5CC(CC(C5)C3)C4)cs2)c(O)c2ccccc21
- TGI (UO-31 renal): > 100 µM
- TGI (NCI-H226 lung): > 100 µM
- TGI (NCI-H522 lung): > 100 µM
- TGI (RXF 393 renal): 65 µM
- TGI (SF-268 CNS): > 100 µM
- TGI (HCC-2998 colon): > 100 µM
- TGI (OVCAR-3 ovarian): > 100 µM
- TGI (MDA-N): > 100 µM
- TGI (UACC-257 melanoma): > 100 µM
- TGI (SN12C renal): > 100 µM
- TGI (SR leukemia): > 100 µM
- TGI (EKVX NSCLC): > 100 µM
- TGI (MCF7 breast): > 100 µM
- TGI (SK-MEL-5 melanoma): > 100 µM
- TGI (K-562 leukemia): > 100 µM
- TGI (NCI/ADR-RES ovarian): 70.2 µM
- TGI (HS 578T breast): > 100 µM
- TGI (BT-549 breast): > 100 µM
- TGI (OVCAR-5 ovarian): > 100 µM
- TGI (MALME-3M melanoma): > 100 µM
- TGI (KM12 colon): > 100 µM
- TGI (PC-3 prostate): > 100 µM
- TGI (RPMI-8226 leukemia): > 100 µM
- TGI (OVCAR-4 ovarian): > 100 µM
- TGI (MDA-MB-231 breast): > 100 µM
- TGI (HOP-92 NSCLC): 65.9 µM
- TGI (A498 renal): > 100 µM
- TGI (A549 NSCLC): > 100 µM
- TGI (HL-60(TB) leukemia): > 100 µM
- TGI (DU-145 prostate): > 100 µM
- TGI (LOX IMVI melanoma): > 100 µM
- TGI (786-0 renal): > 100 µM
- TGI (U251 CNS): > 100 µM
- TGI (HCT-116 colon): > 100 µM
- TGI (SNB-75 CNS): > 100 µM
- TGI (NCI-H23 lung): > 100 µM
- TGI (SNB-19 CNS): > 100 µM
- TGI (ACHN renal): > 100 µM
- TGI (OVCAR-8 ovarian): > 100 µM
- TGI (SW-620 colon): > 100 µM
- TGI (SF-295 CNS): > 100 µM
- TGI (CAKI-1 renal): > 100 µM
- TGI (SK-MEL-28 melanoma): > 100 µM
- TGI (MDA-MB-435): > 100 µM
- TGI (HCT-15 colon): > 100 µM
- TGI (IGROV1 ovarian): > 100 µM
- TGI (COLO 205 colon): > 100 µM
- TGI (CCRF-CEM leukemia): > 100 µM
- TGI (HT29 colon): > 100 µM
- TGI (HOP-62 NSCLC): 36.2 µM
- TGI (TK-10 renal): > 100 µM
- TGI (SF-539 CNS): > 100 µM
- TGI (NCI-H460 lung): > 100 µM

Compound: COC(=O)C1Cc2c(OC)ccc(OC)c2CC(C(=O)OC)C1=O (configuration not stated)
- TGI (UO-31 renal): > 100 µM
- TGI (NCI-H226 lung): > 100 µM
- TGI (NCI-H522 lung): > 100 µM
- TGI (RXF 393 renal): > 100 µM
- TGI (SF-268 CNS): > 100 µM
- TGI (HCC-2998 colon): > 100 µM
- TGI (OVCAR-3 ovarian): > 100 µM
- TGI (MDA-N): > 100 µM
- TGI (UACC-257 melanoma): > 100 µM
- TGI (SN12C renal): > 100 µM
- TGI (EKVX NSCLC): > 100 µM
- TGI (MCF7 breast): > 100 µM
- TGI (T-47D breast): > 100 µM
- TGI (SK-MEL-5 melanoma): > 100 µM
- TGI (K-562 leukemia): > 100 µM
- TGI (NCI/ADR-RES ovarian): > 100 µM
- TGI (HS 578T breast): > 100 µM
- TGI (M14 melanoma): > 100 µM
- TGI (BT-549 breast): > 100 µM
- TGI (OVCAR-5 ovarian): > 100 µM
- TGI (MALME-3M melanoma): > 100 µM
- TGI (KM12 colon): > 100 µM
- TGI (PC-3 prostate): > 100 µM
- TGI (RPMI-8226 leukemia): > 100 µM
- TGI (OVCAR-4 ovarian): > 100 µM
- TGI (SK-OV-3 ovarian): > 100 µM
- TGI (MDA-MB-231 breast): > 100 µM
- TGI (HOP-92 NSCLC): > 100 µM
- TGI (A498 renal): > 100 µM
- TGI (A549 NSCLC): > 100 µM
- TGI (UACC-62 melanoma): > 100 µM
- TGI (DU-145 prostate): > 100 µM
- TGI (MOLT-4 leukemia): > 100 µM
- TGI (786-0 renal): > 100 µM
- TGI (U251 CNS): > 100 µM
- TGI (HCT-116 colon): > 100 µM
- TGI (SNB-75 CNS): > 100 µM
- TGI (NCI-H23 lung): 85.3 µM
- TGI (SNB-19 CNS): > 100 µM
- TGI (ACHN renal): > 100 µM
- TGI (OVCAR-8 ovarian): > 100 µM
- TGI (SW-620 colon): > 100 µM
- TGI (SF-295 CNS): > 100 µM
- TGI (CAKI-1 renal): > 100 µM
- TGI (SK-MEL-28 melanoma): > 100 µM
- TGI (MDA-MB-435): > 100 µM
- TGI (HCT-15 colon): > 100 µM
- TGI (IGROV1 ovarian): > 100 µM
- TGI (COLO 205 colon): > 100 µM
- TGI (CCRF-CEM leukemia): > 100 µM
- TGI (HT29 colon): > 100 µM
- TGI (HOP-62 NSCLC): > 100 µM
- TGI (SF-539 CNS): > 100 µM
- TGI (NCI-H460 lung): > 100 µM
